Assay results: the NIST ThermoML archive (doi:10.1016/j.fluid.2015.03.016)
Where “and” joins values, the source holds several entries; their conditions need not be identical. Identical values can stand only once.

Conditions: Liquid, Vibrating wire viscometry

CCCCOC(=O)CCCCC(=O)OCCCC [dibutyl hexanedioate]
Conditions	viscosity
303.14 K, 1250 kPa	4.201 mPa·s
303.14 K, 1280 kPa	4.21 mPa·s
303.14 K, 2750 kPa	4.305 mPa·s
303.14 K, 2760 kPa	4.313 mPa·s
303.14 K, 2770 kPa	4.312 mPa·s
303.14 K, 5400 kPa	4.417 mPa·s
303.14 K, 5420 kPa	4.417 mPa·s and 4.419 mPa·s and 4.413 mPa·s
303.14 K, 7530 kPa	4.511 mPa·s
303.14 K, 7570 kPa	4.513 mPa·s
303.14 K, 7660 kPa	4.532 mPa·s
303.14 K, 10500 kPa	4.68 mPa·s
303.14 K, 10520 kPa	4.686 mPa·s
303.14 K, 10570 kPa	4.683 mPa·s
303.14 K, 20260 kPa	5.251 mPa·s
303.14 K, 20300 kPa	5.25 mPa·s
303.14 K, 20320 kPa	5.249 mPa·s
303.14 K, 65590 kPa	8.312 mPa·s
303.15 K, 1220 kPa	4.205 mPa·s
303.15 K, 1280 kPa	4.208 mPa·s
303.15 K, 1290 kPa	4.21 mPa·s
303.15 K, 1300 kPa	4.211 mPa·s
303.15 K, 2770 kPa	4.312 mPa·s
303.15 K, 5420 kPa	4.415 mPa·s and 4.419 mPa·s
303.15 K, 7660 kPa	4.531 mPa·s and 4.537 mPa·s
303.15 K, 7680 kPa	4.531 mPa·s and 4.533 mPa·s and 4.537 mPa·s
303.15 K, 7730 kPa	4.518 mPa·s
303.15 K, 10560 kPa	4.689 mPa·s
303.15 K, 15380 kPa	4.954 mPa·s
303.15 K, 15390 kPa	4.955 mPa·s and 4.963 mPa·s and 4.951 mPa·s
303.15 K, 30100 kPa	5.839 mPa·s
303.15 K, 30180 kPa	5.821 mPa·s
303.15 K, 30250 kPa	5.828 mPa·s
303.15 K, 30290 kPa	5.827 mPa·s
303.15 K, 30330 kPa	5.817 mPa·s
303.15 K, 30380 kPa	5.827 mPa·s
303.15 K, 39970 kPa	6.452 mPa·s
303.15 K, 40060 kPa	6.443 mPa·s
303.15 K, 40100 kPa	6.443 mPa·s
303.15 K, 40150 kPa	6.446 mPa·s
303.15 K, 49790 kPa	7.073 mPa·s
303.15 K, 49810 kPa	7.073 mPa·s
303.15 K, 49830 kPa	7.07 mPa·s
303.15 K, 49880 kPa	7.058 mPa·s
303.15 K, 65340 kPa	8.283 mPa·s
303.15 K, 65490 kPa	8.277 mPa·s
313.14 K, 1070 kPa	3.362 mPa·s
313.14 K, 1090 kPa	3.364 mPa·s
313.14 K, 1110 kPa	3.371 mPa·s
313.14 K, 1160 kPa	3.369 mPa·s
313.14 K, 2580 kPa	3.416 mPa·s
313.14 K, 2590 kPa	3.412 mPa·s and 3.414 mPa·s
313.14 K, 2600 kPa	3.415 mPa·s
313.14 K, 2610 kPa	3.416 mPa·s
313.14 K, 5050 kPa	3.518 mPa·s
313.14 K, 5060 kPa	3.518 mPa·s
313.14 K, 7630 kPa	3.595 mPa·s
313.14 K, 10470 kPa	3.713 mPa·s
313.14 K, 15150 kPa	3.89 mPa·s and 3.889 mPa·s
313.14 K, 15210 kPa	3.888 mPa·s
313.14 K, 20300 kPa	4.123 mPa·s
313.14 K, 20430 kPa	4.12 mPa·s
313.14 K, 20440 kPa	4.123 mPa·s
313.14 K, 30160 kPa	4.553 mPa·s
313.14 K, 30180 kPa	4.556 mPa·s and 4.554 mPa·s
313.14 K, 30190 kPa	4.556 mPa·s
313.14 K, 40210 kPa	5.026 mPa·s
313.14 K, 40270 kPa	5.022 mPa·s
313.14 K, 40290 kPa	5.03 mPa·s
313.14 K, 40330 kPa	5.028 mPa·s
313.14 K, 50580 kPa	5.596 mPa·s
313.14 K, 50590 kPa	5.598 mPa·s
